Test results as given in US7179806B2, “Δ1-pyrrolines used as pesticides” (Bayer Cropscience AG, priority 2000, dated 2007).

experiment: log P determination by HPLC (reversed-phase C18, EEC Directive 79/831 Annex V.A8); assay type: physicochemical; conditions: reversed-phase C18 HPLC column, pH 2.3, pH 2.3, 0.1% aqueous phosphoric acid/acetonitrile gradient, 43° C
Source text: Mobile phases for determination in the acidic range: 0.1% aqueous phosphoric acid, acetonitrile; linear gradient from 10% acetonitrile to 90% acetonitrile.

Compared with `Fc1cccc(F)c1C1=NC(c2ccc(-c3cnc(Cc4ccccc4)nc3)cc2)CC1` (centres unmarked) [Example 91], `Fc1cccc(F)c1C1=NC(c2ccc(-c3cnc(-n4cccn4)nc3)cc2)CC1` (centres unmarked) [Example 130] is lower in chromatographic logP: 2.79 for the first, 1.98 for the second.

Compared with `Fc1cccc(F)c1C1=NC(c2ccc(-c3cnc(SCSC(F)(F)F)nc3)cc2)CC1` (centres unmarked) [Example 92], `CCOc1ncc(-c2ccc(C3CCC(c4c(F)cccc4F)=N3)cc2)cn1` (centres unmarked) [Example 102] is lower in chromatographic logP: 4 for the first, 2.21 for the second.

First: FC(F)Sc1ncc(-c2ccc(C3CCC(c4ccccc4Cl)=N3)cc2)cn1 (centres unmarked) [Example 93]
Second: CCCOc1ncc(-c2ccc(C3CCC(c4c(F)cccc4F)=N3)cc2)cn1 (centres unmarked) [Example 100]
The chromatographic logP of the first is higher: 3.38 for the first, 2.72 for the second.

Going from `Fc1cccc(F)c1C1=N[C@@H](c2ccc(-c3ccc(C(F)(F)F)cn3)cc2)CC1` [Example 94] to `Fc1cccc(F)c1C1=NC(c2ccc(-c3ccc(Br)cn3)cc2)CC1` (centres unmarked) [Example 110], the chromatographic logP falls from 3.28 to 3.07.

`Fc1cccc(F)c1C1=NC(c2ccc(-c3cnc(OC(C(F)(F)F)C(F)(F)F)nc3)cc2)CC1` (centres unmarked) [Example 95] and `Fc1cccc(F)c1C1=NC(c2ccc(-c3cnc(N4CCC(C(F)(F)F)CC4)nc3)cc2)CC1` (centres unmarked) [Example 122] are within 0.2 log units of each other in chromatographic logP: 3.85 for the first, 3.84 for the second.

Compared with `CN1CCN(c2ccc(-c3ccc(C4CCC(c5c(F)cccc5F)=N4)cc3)cn2)CC1` (centres unmarked) [Example 96], `CCC(C)N1CCN(c2ccc(-c3ccc(C4CCC(c5c(F)cccc5F)=N4)cc3)cn2)CC1` (centres unmarked) [Example 113] is higher in chromatographic logP: 1.04 for the first, 1.3 for the second.

Compared with `CC1CC(C)CN(c2ccc(-c3ccc(C4CCC(c5c(F)cccc5F)=N4)cc3)cn2)C1` (centres unmarked) [Example 97], `Fc1cccc(F)c1C1=NC(c2ccc(-c3ccc(N4CCCCC4)nc3)cc2)CC1` (centres unmarked) [Example 111] is lower in chromatographic logP: 2.1 for the first, 1.49 for the second.

Compared with `CCCCCCN(C)c1ncc(-c2ccc(C3CCC(c4c(F)cccc4F)=N3)cc2)cn1` (centres unmarked) [Example 99], `COCCN(CCOC)c1ncc(-c2ccc(C3CCC(c4c(F)cccc4F)=N3)cc2)cn1` (centres unmarked) [Example 107] is lower in chromatographic logP: 4.94 for the first, 2.48 for the second.

Compared with `CCN1CCN(c2ncc(-c3ccc(C4CCC(c5c(F)cccc5F)=N4)cc3)cn2)CC1` (centres unmarked) [Example 101], `CCOCCN1CCN(c2ncc(-c3ccc(C4CCC(c5c(F)cccc5F)=N4)cc3)cn2)CC1` (centres unmarked) [Example 125] is higher in chromatographic logP: 1.24 for the first, 1.47 for the second.

Compared with `CCC1CC(CC)CN(c2ncc(-c3ccc(C4CCC(c5c(F)cccc5F)=N4)cc3)cn2)C1` (centres unmarked) [Example 103], `CCC1CCN(c2ncc(-c3ccc(C4CCC(c5c(F)cccc5F)=N4)cc3)cn2)CC1` (centres unmarked) [Example 121] is lower in chromatographic logP: 5.82 for the first, 4.58 for the second.

`CC1CN(c2ncc(-c3ccc(C4CCC(c5c(F)cccc5F)=N4)cc3)cn2)CC(C)O1` (centres unmarked) [Example 104] and `C[C@@H]1CN(c2ncc(-c3ccc(C4CCC(c5c(F)cccc5F)=N4)cc3)cn2)C[C@H](C)O1` (some centres unmarked) [Example 137] are within 0.2 log units of each other in chromatographic logP: 3 for the first, 3.03 for the second.

First: Fc1cccc(F)c1C1=NC(c2ccc(-c3cnc(N4CCCCCC4)nc3)cc2)CC1 (centres unmarked) [Example 105]
Second: Fc1cccc(F)c1C1=NC(c2ccc(-c3ccc(N4CCCCCC4)nc3)cc2)CC1 (centres unmarked) [Example 109]
The chromatographic logP of the first is higher: 3.41 for the first, 1.65 for the second.

Compared with `O=C1CCCCCN1c1ccc(-c2ccc(C3CCC(c4c(F)cccc4F)=N3)cc2)cn1` (centres unmarked) [Example 106], `Fc1cccc(F)c1C1=NC(c2ccc(-c3ccc(-n4ccnc4)nc3)cc2)CC1` (centres unmarked) [Example 114] is lower in chromatographic logP: 2.25 for the first, 1.28 for the second.

Going from `C=CCN(CC=C)c1ncc(-c2ccc(C3CCC(c4c(F)cccc4F)=N3)cc2)cn1` (centres unmarked) [Example 108] to `Fc1cccc(F)c1C1=NC(c2ccc(-c3cnc(-n4cncn4)nc3)cc2)CC1` (centres unmarked) [Example 118], the chromatographic logP falls from 3.74 to 1.55.

First: CCCC(C)N1CCN(c2ncc(-c3ccc(C4CCC(c5c(F)cccc5F)=N4)cc3)cn2)CC1 (centres unmarked) [Example 112]
Second: CCC(CC)N1CCN(c2ncc(-c3ccc(C4CCC(c5c(F)cccc5F)=N4)cc3)cn2)CC1 (centres unmarked) [Example 135]
The chromatographic logP of the first is lower: 1.65 for the first, 2.13 for the second.

Going from `Cc1ccc(N2CCN(c3ncc(-c4ccc(C5CCC(c6c(F)cccc6F)=N5)cc4)cn3)CC2)cc1C` (centres unmarked) [Example 116] to `Cc1cccc(N2CCN(c3ncc(-c4ccc(C5CCC(c6c(F)cccc6F)=N5)cc4)cn3)CC2)c1C` (centres unmarked) [Example 134], the chromatographic logP rises from 3.88 to 5.78.

First: Fc1cccc(F)c1C1=NC(c2ccc(-c3cnc(N4CCN(c5ncccn5)CC4)nc3)cc2)CC1 (centres unmarked) [Example 117]
Second: Fc1cccc(F)c1C1=NC(c2ccc(-c3cnc(N4CCN(c5cccc(Cl)c5)CC4)nc3)cc2)CC1 (centres unmarked) [Example 136]
The chromatographic logP of the first is lower: 2.7 for the first, 4.83 for the second.

Compared with `CC(C)(C)C1CCN(c2ncc(-c3ccc(C4CCC(c5c(F)cccc5F)=N4)cc3)cn2)CC1` (centres unmarked) [Example 119], `CC1(C)CCN(c2ncc(-c3ccc(C4CCC(c5c(F)cccc5F)=N4)cc3)cn2)CC1` (centres unmarked) [Example 120] is lower in chromatographic logP: 5.47 for the first, 4.38 for the second.

Compared with `Fc1cccc(F)c1C1=NC(c2ccc(-c3cnc(N4CCN(CC5CCCCC5)CC4)nc3)cc2)CC1` (centres unmarked) [Example 123], `Fc1cccc(F)c1C1=NC(c2ccc(-c3ccc(N4CCN(CC5CCCCC5)CC4)nc3)cc2)CC1` (centres unmarked) [Example 128] is higher in chromatographic logP: 2.12 for the first, 6.7 for the second.

Compared with `Fc1cccc(F)c1C1=NC(c2ccc(-c3cnc(-n4ccnc4)nc3)cc2)CC1` (centres unmarked) [Example 124], `Fc1cccc(F)c1C1=NC(c2ccc(-c3cnc(N4CCSCC4)nc3)cc2)CC1` (centres unmarked) [Example 140] is higher in chromatographic logP: 1.25 for the first, 3.13 for the second.

Compared with `COCCCN1CCN(c2ncc(-c3ccc(C4CCC(c5c(F)cccc5F)=N4)cc3)cn2)CC1` (centres unmarked) [Example 126], `CN(C)CCN1CCN(c2ncc(-c3ccc(C4CCC(c5c(F)cccc5F)=N4)cc3)cn2)CC1` (centres unmarked) [Example 132] is higher in chromatographic logP: 1.38 for the first, 3 for the second.

Compared with `Fc1cccc(F)c1C1=NC(c2ccc(-c3ccc(OC(F)F)nc3)cc2)CC1` (centres unmarked) [Example 127], `CCC(CC)N1CCN(c2ccc(-c3ccc(C4CCC(c5c(F)cccc5F)=N4)cc3)cn2)CC1` (centres unmarked) [Example 138] is lower in chromatographic logP: 3.13 for the first, 1.39 for the second.

`N#Cc1ccc(N2CCN(c3ccc(-c4ccc(C5CCC(c6c(F)cccc6F)=N5)cc4)cn3)CC2)cc1` (centres unmarked) [Example 129] and `N#Cc1ccccc1N1CCN(c2ccc(-c3ccc(C4CCC(c5c(F)cccc5F)=N4)cc3)cn2)CC1` (centres unmarked) [Example 133] are within 0.2 log units of each other in chromatographic logP: 2.29 for the first, 2.3 for the second.

Going from `N#CCCN1CCN(c2ncc(-c3ccc(C4CCC(c5c(F)cccc5F)=N4)cc3)cn2)CC1` (centres unmarked) [Example 131] to `Cc1ccc(CN2CCN(c3ncc(-c4ccc(C5CCC(c6c(F)cccc6F)=N5)cc4)cn3)CC2)cc1` (centres unmarked) [Example 141], the chromatographic logP rises from 1.69 to 2.28.

First: CC(C)(C)c1ccc(CN2CCN(c3ncc(-c4ccc(C5CCC(c6c(F)cccc6F)=N5)cc4)cn3)CC2)cc1 (centres unmarked) [Example 139]
Second: Fc1cccc(F)c1C1=NC(c2ccc(-c3cnc(N4CCN(Cc5ccc(C(F)(F)F)cc5)CC4)nc3)cc2)CC1 (centres unmarked) [Example 144]
The chromatographic logP of the first is lower: 3.3 for the first, 4.7 for the second.

`COc1ccc(CN2CCN(c3ncc(-c4ccc(C5CCC(c6c(F)cccc6F)=N5)cc4)cn3)CC2)cc1` (centres unmarked) [Example 142] and `Fc1cccc(F)c1C1=NC(c2ccc(-c3cnc(N4CCN(Cc5ccc(Cl)cc5)CC4)nc3)cc2)CC1` (centres unmarked) [Example 143] are within 0.2 log units of each other in chromatographic logP: 2.22 for the first, 2.25 for the second.

`Fc1ccc(CN2CCN(c3ncc(-c4ccc(C5CCC(c6c(F)cccc6F)=N5)cc4)cn3)CC2)cc1` (centres unmarked) [Example 145] showed a chromatographic logP of 1.78.
